The text below walks through data of EP1140909B1, “NOVEL INHIBITORS OF FARNESYL-PROTEIN TRANSFERASE” (Schering Corporation, priority 1998, dated 2000).

Values joined by “and” are separate entries in the source; they are usually repeats but may differ in a detail not shown here. Equal entries are not always repeated.

The term IC50 denotes the concentration that gives 50% inhibition. Read a low IC50 as greater potency.

T1 sequence (Q02293 whole entry, one chain of several): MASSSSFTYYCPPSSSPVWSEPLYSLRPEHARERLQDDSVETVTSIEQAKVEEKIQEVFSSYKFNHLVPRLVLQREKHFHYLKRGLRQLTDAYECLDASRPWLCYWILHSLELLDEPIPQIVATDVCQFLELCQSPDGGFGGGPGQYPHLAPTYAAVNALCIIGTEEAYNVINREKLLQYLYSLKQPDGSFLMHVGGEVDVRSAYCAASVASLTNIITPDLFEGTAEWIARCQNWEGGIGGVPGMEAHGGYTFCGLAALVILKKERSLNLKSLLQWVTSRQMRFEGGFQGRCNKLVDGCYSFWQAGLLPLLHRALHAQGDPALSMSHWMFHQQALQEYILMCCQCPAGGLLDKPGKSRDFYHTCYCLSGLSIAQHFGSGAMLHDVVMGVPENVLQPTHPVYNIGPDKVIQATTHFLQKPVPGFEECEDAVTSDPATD

This assay has as its target T1, partially purified rat brain farnesyl protein transferase (FPT) (Rattus norvegicus, UniProt Q02293+Q04631).
T1 construct: partially purified rat brain farnesyl protein transferase (FPT); from tissue; host or cells: rat brain
Briefly: FPT IC50 in vitro enzyme assay (inhibition of Ras-CVLS farnesylation). In kind it is biochemical. The settings on record: inhibition of Ras-CVLS famesylation; methods of WO/10515 or WO 95/10516. How it is done: 1. In vitro enzyme assays: FPT IC50 (inhibition of farnesyl protein transferase, in vitro enzyme assay) are determined by the methods disclosed in […] or WO 95/10516.
As to `N#Cc1ccc(Cn2cncc2CCNC(=O)[C@H]2CN(Cc3ccncc3)CCN2C(=O)NC2CCCCC2)cc1` [Example 5], the IC50 was 0.18 to 21 nM.

As to `O=C(C1CN(Cc2ccccc2)CCN1C(=O)NC1CCCCC1)N(CCCn1ccnc1)Cc1ccccc1` (stereo not shown) [Example 28S], the IC50 is 0.18 to 21 nM.

In turn, `N#Cc1ccc(Cn2cncc2CCNC(=O)[C@H]2CN(Cc3cccc(Cl)c3)CCN2C(=O)NC2CCCCC2)cc1` [Example 25] gave an IC50 of 0.18 to 1.5 nM.

`N#Cc1ccc(Cn2cncc2CCNC(=O)C2CN(Cc3ccccc3)CCN2S(=O)(=O)Cc2ccccc2)cc1` (stereo not shown) [Example 28M] registered an IC50 of 0.18 to 21 nM.

As for `N#Cc1ccc(Cn2cncc2CCNC(=O)C2CN(Cc3ccccc3)CCN2C(=O)c2ccccc2)cc1` (stereo not shown) [Example 28G], the IC50 fell in the range of 0.18 to 21 nM.

Regarding `N#Cc1ccc(Cn2cncc2CCNC(=O)[C@H]2CN(CC3CC4C=CC3C4)CCN2C(=O)NC2CCCCC2)cc1` (stereo partly shown) [Example 6], the IC50 lay within 0.18 to 21 nM.

On to `COc1ccccc1CN1CCN(C(=O)NC2CCCCC2)[C@@H](C(=O)NCCc2cncn2Cc2ccc(C#N)cc2)C1` [Example 27], for which the IC50 lay within 0.18 to 1.5 nM.

As to `N#Cc1ccc(Cn2cncc2CCNC(=O)C2CN(Cc3ccccc3)CCN2C(=O)Cc2ccccc2)cc1` (stereo not shown) [Example 28I], the IC50 was 0.18 to 21 nM.

The compound `N#Cc1ccc(Cn2cncc2CCNC(=O)C2CN(Cc3ccccc3)CCN2C(=O)CC2CCN(C(N)=O)CC2)cc1` (stereo not shown) [Example 28Q] came in with an IC50 of 0.18 to 21 nM.

`N#Cc1ccc(Cn2cncc2CCNC(=O)[C@H]2CN(Cc3ccccc3Cl)CCN2C(=O)NC2CCCCC2)cc1` [Example 28] gave an IC50 of 0.18 to 1.5 nM.

`CC(c1ccccc1)N1CCN(C(=O)NC2CCCCC2)[C@@H](C(=O)NCCc2cncn2Cc2ccc(C#N)cc2)C1` (stereo partly drawn) [Example 1, N2-[2-[1-[(4-cyanophenyl)methyl]-1H-imidazol-5-yl]ethyl]-N1-cyclohexyl-4-(1-phenylethyl)-1,2(R)-piperazinedicarboxamide] displayed an IC50 of 0.18 to 21 nM.

On to `CC(C)(C)NC(=O)N1CCN(Cc2ccccc2)CC1C(=O)N(CCCn1ccnc1)Cc1ccccc1` (stereo not shown) [Example 28T], for which the IC50 lay in the range of 0.18 to 21 nM.

`COc1cccc(CN2CCN(C(=O)NC3CCCCC3)[C@@H](C(=O)NCCc3cncn3Cc3ccc(C#N)cc3)C2)c1` [Example 26] showed an IC50 of 0.18 to 1.5 nM.

In the case of `CC(C)(C)NC(=O)N1CCN(Cc2ccccc2)CC1C(=O)NCCc1cncn1Cc1ccc(C#N)cc1` (stereo not shown) [Example 28O], the IC50 is 0.18 to 21 nM and 0.18 to 1.5 nM.

`CC(=O)Nc1ccc(CN2CCN(C(=O)NC3CCCCC3)[C@@H](C(=O)NCCc3cncn3Cc3ccc(C#N)cc3)C2)cc1` [Example 20] returned an IC50 of 0.18 to 1.5 nM.

`CCCC(=O)N1CCN(Cc2ccccc2)CC1C(=O)NCCc1cncn1Cc1ccc(C#N)cc1` (stereo not shown) [Example 28F] registered an IC50 of 0.18 to 21 nM.
